The values that follow are results of earlier work, collected in patent publication US20220259243A1, “IRON(III) AND GALLIUM(III) METAL ORGANIC POLYHEDRA, METHODS OF MAKING SAME, AND USES THEREOF” (The Research Foundation for The State University of New York, priority 2019, published 2022).

The conditions of the data set: 37° C., 4.7 Tesla, neutral pH.

`CNC[C@H](O)[C@@H](O)[C@H](O)[C@H](O)CO.CNC[C@H](O)[C@@H](O)[C@H](O)[C@H](O)CO.O=C([O-])CN(CCN(CC(=O)[O-])CC(=O)O)CCN(CC(=O)[O-])CC(=O)O.[Gd+3]` [Magnevist]: the r1 relaxivity is 3 mM⁻¹ s⁻¹.
